Test results taken from patent publication EP0153678A1, “Cinnamic acid derivatives, processes for the preparation thereof and pharmaceutical compositions” (Tanabe Seiyaku Co., Ltd., priority 1984, dated 1985).
Where a name gives a salt, the structure may show the parent alone.

What was measured:
[1] = tested on: pulmonary embolism induced by arachidonic acid; experiment: Prophylactic effect against pulmonary embolism induced by arachidonic acid in mice (method of Kohler et al.); type: in vivo; settings: for Evalu-tion (shortening rate of the recovery time): ddY male mice, test compound 30 mg/kg orally in 0.25 % CMC, after one hour arachidonic acid 70 mg/kg intravenously; for prophylactic effect against arachidonic acid-induced pulmonary embolism, relative to 3-[4-(3-pyridylmethyl)phenyl]-2-methylacrylic acid hydrochloride: Kohler et al.'s method, times as strong as the known compound
Experimental: After one hour, arachidonic acid (70 mg/10 ml saline solution/kg) was intravenously administered. […] The time from having had difficulty in breathing and laying till starting to move was counted as a recovery time. When the test animal was died, the longest recovery time during the test was counted. The shortening rate of the recovery time was calculated by the following formula for showing the effect of the test compounds.

[2] = Toxicity compared with the known compound (method not described); settings: fraction of the toxicity of the sodium salt of the known compound

Row | Structure (SMILES) | Evalu-tion (shortening rate of the recovery time) [1] | prophylactic effect against arachidonic acid-induced pulmonary embolism, relative to 3-[4-(3-pyridylmethyl)phenyl]-2-methylacrylic acid hydrochloride [1] | toxicity relative to sodium 3-[4-(3-pyridylmethyl)phenyl]-2-methyl--acrylate [2]
1 | CC(=Cc1ccc(C(=O)c2cccnc2)cc1)C(=O)O [hydrochloride] | + (evaluated as (+) when it was more than 50 %) |  | 
2 | COC(c1ccc(C=C(C)C(=O)O)cc1)c1cccnc1 (stereo not drawn) [sodium α-methyl-4-(α-methoxy-3-pyridylmethyl)cinnamate] | + (evaluated as (+) when it was more than 50 %) |  | 
3 | CC(=Cc1ccc(C(O)c2cccnc2)cc1)C(=O)O (stereo not drawn) [α-methyl-4-(α-hydroxy-3-pyridylmethyl)cinnamic acid] |  | more than 2 times | 
4 | CC(=Cc1ccc(Cc2cccnc2)cc1)C(=O)O.Cl [3-[4-(3-pyridylmethyl)phenyl]-2-methylacrylic acid hydrochloride, reference compound] | ± (evaluated as (±) when it was from 20 % to less than 50 %) |  | 
5 | CC(=Cc1ccc(C(O)c2cccnc2)cc1)C(=O)O (stereo not drawn) [α-methyl-4-(α-hydroxy-3-pyridylmethyl)cinnamic acid hydrochloride] | + (evaluated as (+) when it was more than 50 %) |  | 
6 | CCOC(c1ccc(C=C(C)C(=O)[O-])cc1)c1cccnc1.[Na+] (stereo not drawn) [sodium α-methyl-4-(α-ethoxy-3-pyridylmethyl)cinnamate] | + (evaluated as (+) when it was more than 50 %) | more than 2 times | about half
7 | CCCOC(c1ccc(C=C(C)C(=O)[O-])cc1)c1cccnc1.[Na+] (stereo not drawn) [sodium α-methyl-4-(α-n-propoxy-3-pyridylmethyl)cinnamate] | + (evaluated as (+) when it was more than 50 %) |  | 
